Source: US4272437A, “Antibacterial agents, and 4-thio azetidinone intermediates” (priority 1979, dated 1981)
Converted amounts (≈) assume the structure as drawn. Where two headings read alike, the source gives them in different places.

Tests used:
Str. pneumoniae A-9585 = assay: MIC, tube dilution, Streptococcus pneumoniae A9585; assay type: cell-based; details: overnight 37° C., Nutrient Broth; for MIC: Streptococcus pneumoniae, A9585, Str. pneumoniae A9585, read-out: Minimum Inhibitory Concentration (M.I.C.)
Text: (§1) Representative compounds of the present invention were subjected to in vitro antibiotic screening against a variety of microorganisms.

Str. pyogenes A-9604 = assay: MIC, tube dilution, Streptococcus pyogenes A9604; assay type: cell-based; details: overnight 37° C., Nutrient Broth; for MIC: Streptococcus pyogenes, A9604, Str. pyogenes A9604, read-out: Minimum Inhibitory Concentration (M.I.C.)
Text: as §1

Staph. aureus A-9537 = assay: MIC, tube dilution, Staphylococcus aureus A9537; assay type: cell-based; details: overnight 37° C., Nutrient Broth; for MIC: Staphylococcus aureus, A9537, Staph. aureus A9537, read-out: Minimum Inhibitory Concentration (M.I.C.)
Text: as §1

[1] = test system: Staph. aureus A-9537 and 50% serum; assay: MIC, tube dilution, Staph. aureus A9537 + 50% serum; assay type: cell-based, Staphylococcus aureus; details: overnight 37° C.; for MIC: Staphylococcus aureus, read-out: Minimum Inhibitory Concentration (M.I.C.)
Text: as §1

[2] = test system: Staph. aureus (Pen-Res) A-9606; assay: MIC, tube dilution, Staphylococcus aureus A9606 (Pen-Res); assay type: cell-based; details: Staph. aureus A9606 (Pen-Res), overnight 37° C.; for MIC: Staphylococcus aureus, read-out: Minimum Inhibitory Concentration (M.I.C.)
Text: as §1

[3] = test system: Staph. aureus (Meth-Res) A-15097; assay: MIC, tube dilution, Staphylococcus aureus A15097 (Meth-Res); assay type: cell-based; details: Staph. aureus A15097 (Meth-Res), overnight 37° C.; for MIC: Staphylococcus aureus, read-out: Minimum Inhibitory Concentration (M.I.C.)
Text: as §1

Str. faecalis A-20688 = assay: MIC, tube dilution, Streptococcus faecalis A20688; assay type: cell-based; details: overnight 37° C.; for MIC: Enterococcus faecalis, A20688, Str. faecalis A20688, read-out: Minimum Inhibitory Concentration (M.I.C.)
Text: as §1

E. coli A-15119 = assay: MIC, tube dilution, Escherichia coli A15119; assay type: cell-based; details: overnight 37° C.; for MIC: Escherichia coli, A15119, E. coli A15119, read-out: Minimum Inhibitory Concentration (M.I.C.)
Text: as §1

E. coli A-20341-1 = assay: MIC, tube dilution, Escherichia coli A20341-1; assay type: cell-based
Text: as §1

K. pneumoniae A-15130 = assay: MIC, tube dilution, Klebsiella pneumoniae A15130; assay type: cell-based; details: overnight 37° C.; for MIC: Klebsiella pneumoniae, A15130, K. pneumoniae A15130, read-out: Minimum Inhibitory Concentration (M.I.C.)
Text: as §1

[4] = test system: Klebsiella species A20468; assay: MIC, tube dilution, Klebsiella species A20468; assay type: cell-based; details: Klebsiella species (K. pneumoniae) A20468, overnight 37° C.; for MIC: read-out: Minimum Inhibitory Concentration (M.I.C.)
Text: as §1

Pr. mirabilis A-9900 = assay: MIC, tube dilution, Proteus mirabilis A9900; assay type: cell-based; details: overnight 37° C.; for MIC: Proteus mirabilis, A9900, Proteus mirabilis A9900, read-out: Minimum Inhibitory Concentration (M.I.C.)
Text: as §1

Pr. morganii A-15153 = assay: MIC, tube dilution, Proteus morganii A15153; assay type: cell-based; details: overnight 37° C.; for MIC: Morganella morganii, A15153, Proteus morganii A15153, read-out: Minimum Inhibitory Concentration (M.I.C.)
Text: as §1

Ser. marcescens A-20019 = assay: MIC, tube dilution, Serratia marcescens A20019; assay type: cell-based; details: overnight 37° C.; for MIC: Serratia marcescens, A20019, Serratia marcescens A20019, read-out: Minimum Inhibitory Concentration (M.I.C.)
Text: as §1

Ent. cloacae A-9659 = assay: MIC, tube dilution, Enterobacter cloacae A9659; assay type: cell-based; details: overnight 37° C.; for MIC: Enterobacter cloacae, A9659, Enterobacter cloacae A9659, read-out: Minimum Inhibitory Concentration (M.I.C.)
Text: as §1

Ent. cloacae A-9656 = assay: MIC, tube dilution, Enterobacter cloacae A9656; assay type: cell-based; details: overnight 37° C.; for MIC: Enterobacter cloacae, A9656, Enterobacter cloacae A9656, read-out: Minimum Inhibitory Concentration (M.I.C.)
Text: as §1

Ps. aeruginosa A-9843A = assay: MIC, tube dilution, Pseudomonas aeruginosa A9843A; assay type: cell-based; details: overnight 37° C.; for MIC: Pseudomonas aeruginosa, A9843A, read-out: Minimum Inhibitory Concentration (M.I.C.), Pseudomonas aeruginosa A9843A
Text: as §1

Ps. aeruginosa A-21213 = assay: MIC, tube dilution, Pseudomonas aeruginosa A21213; assay type: cell-based; details: overnight 37° C.; for MIC: read-out: Minimum Inhibitory Concentration (M.I.C.)
Text: as §1

Proteus rettgeri A21203 = assay: MIC, tube dilution, Proteus rettgeri A21203; assay type: cell-based; details: overnight 37° C.; for MIC: Providencia rettgeri, A21203, Proteus rettgeri A21203, read-out: Minimum Inhibitory Concentration (M.I.C.)
Text: as §1

Proteus vulgaris A21559 = assay: MIC, tube dilution, Proteus vulgaris A21559; assay type: cell-based; details: overnight 37° C.; for MIC: Proteus vulgaris, A21559, Proteus vulgaris A21559, read-out: Minimum Inhibitory Concentration (M.I.C.)
Text: as §1

S. aureus A9537 = assay: In vivo protection of mice, lethal infection with S. aureus A9537; details: IM, 2 treatments; for ED50: Staphylococcus aureus, A9537, im, read-out: PD50
Procedure: Representative compounds of the present invention were also tested in vivo in mice and their PD50 (dose of compound in mg/kg required to protect 50% of the treated mice against an otherwise lethal infection of a micro-organism) values determined with respect to the test organisms shown below.

CC1=C(C(=O)O)N2C(=O)[C@H]([C@@H]3COC(C)(C)O3)[C@H]2S1 (relative stereo) [Example 103, (4'R,5R,6S and 4'S,5S,6R) 6-(2',2'-Dimethyl-1',3'-dioxolan-4'-yl)-2-methylpenem-3-carboxylic Acid (Isomer C)]
MIC (Str. pneumoniae A-9585): 63 µg/mL (≈ 221 µM) | MIC (Str. pyogenes A-9604): 63 µg/mL (≈ 221 µM) | MIC (Staph. aureus A-9537): > 63 µg/mL | MIC [1]: > 32 µg/mL | MIC [2]: > 63 µg/mL | MIC [3]: > 63 µg/mL | MIC (Str. faecalis A-20688): > 63 µg/mL | MIC (E. coli A-15119): > 63 µg/mL | MIC (E. coli A-20341-1; Escherichia coli, A203411, E. coli A20341-1; overnight 37° C.; read-out: Minimum Inhibitory Concentration (M.I.C.)): > 63 µg/mL | MIC (K. pneumoniae A-15130): > 63 µg/mL | MIC [4]: > 63 µg/mL | MIC (Pr. mirabilis A-9900): 63 µg/mL (≈ 221 µM) | MIC (Pr. morganii A-15153): > 63 µg/mL | MIC (Ser. marcescens A-20019): > 63 µg/mL | MIC (Ent. cloacae A-9659): > 63 µg/mL | MIC (Ent. cloacae A-9656): > 63 µg/mL | MIC (Ps. aeruginosa A-9843A): 63 µg/mL (≈ 221 µM) | MIC (Ps. aeruginosa A-21213; Pseudomonas aeruginosa, A21213, Pseudomonas aeruginosa A21213): 63 µg/mL (≈ 221 µM) | MIC (Proteus rettgeri A21203): > 63 µg/mL | MIC (Proteus vulgaris A21559): > 63 µg/mL | ED50 (S. aureus A9537; 8 × 10^5 organisms): > 5 mg/kg

NC1CCC(C2=C(C(=O)O)N3C(=O)C[C@H]3S2)C1 (single isomer, unassigned) [98 isomer B, 2-(3-Aminocyclopentyl)-penem-3-carboxylic acid]
Minimum Inhibitory Concentration (M.I.C.) (Str. pneumoniae A-9585; Str. pneumoniae A9585): .008 µg/mL | Minimum Inhibitory Concentration (M.I.C.) (Str. pyogenes A-9604; Str. pyogenes A9604): .008 µg/mL | Minimum Inhibitory Concentration (M.I.C.) (Staph. aureus A-9537; Staph. aureus A9537): .03 µg/mL | Minimum Inhibitory Concentration (M.I.C.) [1]: .25 µg/mL | Minimum Inhibitory Concentration (M.I.C.) [2]: > 63 µg/mL | Minimum Inhibitory Concentration (M.I.C.) [3]: > 63 µg/mL | Minimum Inhibitory Concentration (M.I.C.) (Str. faecalis A-20688; Str. faecalis A20688): 8 µg/mL | Minimum Inhibitory Concentration (M.I.C.) (E. coli A-15119; E. coli A15119): 1 µg/mL | Minimum Inhibitory Concentration (M.I.C.) (E. coli A-20341-1; E. coli A20341-1; overnight 37° C.): 16 µg/mL | Minimum Inhibitory Concentration (M.I.C.) (K. pneumoniae A-15130; K. pneumoniae A15130): 4 µg/mL | Minimum Inhibitory Concentration (M.I.C.) [4]: > 63 µg/mL | Minimum Inhibitory Concentration (M.I.C.) (Pr. mirabilis A-9900; Proteus mirabilis A9900): 1 µg/mL | Minimum Inhibitory Concentration (M.I.C.) (Pr. morganii A-15153; Proteus morganii A15153): 4 µg/mL | Minimum Inhibitory Concentration (M.I.C.) (Ser. marcescens A-20019; Serratia marcescens A20019): 2 µg/mL | Minimum Inhibitory Concentration (M.I.C.) (Ent. cloacae A-9659; Enterobacter cloacae A9659): 8 µg/mL | Minimum Inhibitory Concentration (M.I.C.) (Ent. cloacae A-9656; Enterobacter cloacae A9656): 2 µg/mL | Minimum Inhibitory Concentration (M.I.C.) (Ps. aeruginosa A-9843A; Pseudomonas aeruginosa A9843A): 63 µg/mL | Minimum Inhibitory Concentration (M.I.C.) (Ps. aeruginosa A-21213; Pseudomonas aeruginosa A21213): > 63 µg/mL | Minimum Inhibitory Concentration (M.I.C.) (Proteus rettgeri A21203; Proteus rettgeri A21203): 1 µg/mL | Minimum Inhibitory Concentration (M.I.C.) (Proteus vulgaris A21559; Proteus vulgaris A21559): 8 µg/mL | PD50 (S. aureus A9537; 9.1 × 10^5 organisms, listed as Ex. 98 (isomer B)): 0.12 mg/kg/treatment

NCc1ccc(C2=C(C(=O)O)N3C(=O)CC3S2)cc1 (stereo not drawn) [Example 74, 2-(p-Aminomethylphenyl)penem-3-carboxylic Acid]
MIC (Str. pneumoniae A-9585): 0.001 µg/mL (≈ 0.00362 µM) | MIC (Str. pyogenes A-9604): 0.001 µg/mL (≈ 0.00362 µM) | MIC (Staph. aureus A-9537): 0.004 µg/mL (≈ 0.0145 µM) | MIC [1]: 2 µg/mL | MIC [2]: 32 µg/mL (≈ 116 µM) | MIC [3]: 32 µg/mL (≈ 116 µM) | MIC (Str. faecalis A-20688): 1 µg/mL (≈ 3.62 µM) | MIC (E. coli A-15119): 8 µg/mL (≈ 29 µM) | MIC (E. coli A-20341-1; Escherichia coli, A203411; E. coli A20341-1; overnight 37° C.; read-out: Minimum Inhibitory Concentration (M.I.C.)): 125 µg/mL (≈ 452 µM) | MIC (K. pneumoniae A-15130): 32 µg/mL (≈ 116 µM) | MIC [4]: > 125 µg/mL | MIC (Pr. mirabilis A-9900): 4 µg/mL (≈ 14.5 µM) | MIC (Pr. morganii A-15153): 16 µg/mL (≈ 57.9 µM) | MIC (Ser. marcescens A-20019): 16 µg/mL (≈ 57.9 µM) | MIC (Ent. cloacae A-9659): 32 µg/mL (≈ 116 µM) | MIC (Ent. cloacae A-9656): 32 µg/mL (≈ 116 µM) | MIC (Ps. aeruginosa A-9843A): > 125 µg/mL | MIC (Ps. aeruginosa A-21213; Pseudomonas aeruginosa A21213): > 125 µg/mL | MIC (Proteus rettgeri A21203): 16 µg/mL (≈ 57.9 µM) | MIC (Proteus vulgaris A21559): 16 µg/mL (≈ 57.9 µM) | ED50 (S. aureus A9537; 7.3 × 10^5 organisms): 0.82 mg/kg
